Converted amounts (≈) assume the structure as drawn. Marks after values point to notes of the source that are not given here.
Columns and labels:
Bacillus cereus [1] = experiment: Agar-well diffusion of formulations; format: cell-based; details: 50 μL per 5 mm well, 37 °C
Method: (§1) The antimicrobial qualities of formulations were evaluated in this study using a variety of techniques. The formulations including 8 PMMA and 2 PVP, which contained varying doses of drug A (0.5% = T1, 1% = T2, 3% = T3, and 5% = T4) or drug B (0.5% = T5, 1% = T6, 3% = T7, and 5% = T8), as well as a combination of 2.5% of drug A and 2.5% of drug B (T9) were assessed. The tested human pathogens were cultivated in a nutritional broth medium containing 0.5% peptone, 0.3% yeast extract, 0.2% beef extract, 0.1% glucose, and 0.5% NaCl in accordance with 0.5 McFarland turbidity criteria.[25] To carry out the agar-well diffusion analysis, microbial cultures (100 μL) were spread on nutrient agar plates using sterile cotton swabs. After drilling each well with a sterile cork-borer of 5 mm in diameter, 50 μL of the tested formulations and the control (composed of 8 PMMA and 2 PVP) were loaded. Agar plates were thereafter left to incubate at 37 °C for an entire day. The inhibitory zone that surrounds each well was measured in millimeters (mm) using a ruler.[26]

Bacillus subtilis [2] = experiment: Agar-well diffusion of formulations; format: cell-based; details: 50 μL per 5 mm well, 37 °C
Method: as §1

Candida albicans [3] = experiment: Agar-well diffusion of formulations; format: cell-based; details: 50 μL per 5 mm well, 37 °C
Method: as §1

Candida glabrata [4] = experiment: Agar-well diffusion of formulations; format: cell-based; details: 50 μL per 5 mm well, 37 °C
Method: as §1

Candida krusei [5] = experiment: Agar-well diffusion of formulations; format: cell-based; details: 50 μL per 5 mm well, 37 °C
Method: as §1

Candida parapsilosis [6] = experiment: Agar-well diffusion of formulations; format: cell-based; details: 50 μL per 5 mm well, 37 °C
Method: as §1

Escherichia coli [7] = experiment: Agar-well diffusion of formulations; format: cell-based; details: 50 μL per 5 mm well, 37 °C
Method: as §1

Klebsiella pneumoniae [8] = experiment: Agar-well diffusion of formulations; format: cell-based; details: 50 μL per 5 mm well, 37 °C
Method: as §1

Pseudomonas aeruginosa [9] = experiment: Agar-well diffusion of formulations; format: cell-based; details: 50 μL per 5 mm well, 37 °C
Method: as §1

Salmonella paratyphi [10] = experiment: Agar-well diffusion of formulations; format: cell-based; details: 50 μL per 5 mm well, 37 °C
Method: as §1

Staphylococcus aureus [11] = experiment: Agar-well diffusion of formulations; format: cell-based; details: 50 μL per 5 mm well, 37 °C
Method: as §1

[12] = tested on: Staphylococcus epidermidis; experiment: Agar-well diffusion of formulations; format: cell-based; details: 50 μL per 5 mm well, 37 °C
Method: as §1

[13] = tested on: multidrug-resistant human pathogens; experiment: Agar-well diffusion of formulations, whole panel; format: cell-based; details: all human pathogens investigated
Method: as §1

Bacillus cereus [14] = experiment: Biofilm inhibition test (spectrophotometric); format: cell-based; details: 24 h, 37 °C, OD vs untreated
Method: (§2) Additionally, a spectrophotometric antibiofilm assay was utilized to determine whether the evaluated formulations might inhibit the growth of pathogens. Fresh nutritional broth was inoculated with each pathogen separately, and this mixture was then incubated at 37 °C at 200 rpm. The optical density (OD) at 600 nm was measured over a 6 h incubation period, allowing for an estimation of the starting microbe's exponential phase (3 × 10^7 CFU mL^−1). To produce treated cultures, 900 μL of planktonic cultures were collected aseptically with 100 μL of each formulation. Furthermore, untreated (formula-free) cultures of pathogens were grown as controls. The cultures were then incubated for 24 hours at 200 rpm and 37 °C. Through spectroscopic evaluation of microbial turbidity, the inhibitory effects of the examined formulations were determined.[27] By comparing the OD of the treated sample with the matching controls, anti-biofilm percentages for each formula were computed.[28]

Bacillus subtilis [15] = experiment: Biofilm inhibition test (spectrophotometric); format: cell-based; details: 24 h, 37 °C, OD vs untreated
Method: as §2

Candida albicans [16] = experiment: Biofilm inhibition test (spectrophotometric); format: cell-based; details: 24 h, 37 °C, OD vs untreated
Method: as §2

Candida glabrata [17] = experiment: Biofilm inhibition test (spectrophotometric); format: cell-based; details: 24 h, 37 °C, OD vs untreated
Method: as §2

Candida krusei [18] = experiment: Biofilm inhibition test (spectrophotometric); format: cell-based; details: 24 h, 37 °C, OD vs untreated
Method: as §2

Candida parapsilosis [19] = experiment: Biofilm inhibition test (spectrophotometric); format: cell-based; details: 24 h, 37 °C, OD vs untreated
Method: as §2

Escherichia coli [20] = experiment: Biofilm inhibition test (spectrophotometric); format: cell-based; details: 24 h, 37 °C, OD vs untreated
Method: as §2

Klebsiella pneumoniae [21] = experiment: Biofilm inhibition test (spectrophotometric); format: cell-based; details: 24 h, 37 °C, OD vs untreated
Method: as §2

Pseudomonas aeruginosa [22] = experiment: Biofilm inhibition test (spectrophotometric); format: cell-based; details: 24 h, 37 °C, OD vs untreated
Method: as §2

Salmonella paratyphi [23] = experiment: Biofilm inhibition test (spectrophotometric); format: cell-based; details: 24 h, 37 °C, OD vs untreated
Method: as §2

Staphylococcus aureus [24] = experiment: Biofilm inhibition test (spectrophotometric); format: cell-based; details: 24 h, 37 °C, OD vs untreated
Method: as §2

[25] = tested on: Staphylococcus epidermidis; experiment: Biofilm inhibition test (spectrophotometric); format: cell-based; details: 24 h, 37 °C, OD vs untreated
Method: as §2

Wi-38 cells = experiment: MTT cytotoxicity assay, normal cells; format: cell-based; details: 48 h
Text: (§3) MTT assay: the normal cell line (Wi-38), colon cancer (Caco-2), lung cancer (A549), and breast cancer (MDA) cell lines were sourced from ATCC, USA. All different cell lines were cultivated and preserved in DMEM medium (SERANA, Germany), accompanied by 10% FBS (Gibco, USA) and 1% Pen/Strep solution (Lonza, USA). The newly prepared derivatives at various doses were considered for their anticancer activity and their safety on normal cells, applying MTT (3-[4, 5-dimethylthiazol]-2, 5-diphenyltetrazolium bromide) methods.[22] At first, all normal and cancer cell lines (1.0 ×10^4) were inoculated in 4 antiseptic 96-well tissue culture microplates and incubated for 24 h in a CO2 incubator. After cell attachments, the prepared derivatives were added to both normal Wi-38 cells at diverse concentrations of (6.25–200 μg mL^−1, 2-fold) and cancer cells at different concentrations of (3.125–100 μg mL^−1, 2-fold) in triplicate and incubated for another 48 h at 37 °C in a CO2 incubator with an adjusted concentration of 5%. After that, the treated cells were cleaned three times with PBS to remove debris and dead cells. Next, 200 μL of 0.5 mg mL^−1 MTT dye solution in PBS was mixed in each well, and the cells were further kept for 3 h at 37 °C in a 5% CO2 incubator. After that, MTT was removed and 200 μL of DMSO was added to each well. The optical density (OD) was recorded at 570 nm via a microplate reader (B.M.G. LabTech, Germany). Basic cells (untreated) were utilized as negative control cells, and 5-fluorouracil (5-FU) was included as a standard chemotherapy drug. The qualified cell viability (%) was evaluated as in equation (eqn (1)):1 Relative cell viability (%) = […] A1 is the OD of the examined derivative, A0 is the OD of the standard, and AU is the OD of the untreated cells.
(§4) Anticancer activity assay: the anticancer effect of each derivative was assessed by evaluating the half-maximal inhibitory concentration (IC50) value via the GraphPad Prism 7.0 software. However, SI (selective index) values of each derivative were estimated by splitting the IC50 value of healthy cells by the IC50 value of malignant cells, as previously reported.[23] The effects of the created derivatives on the morphology of MDA cells were evaluated at IC50 doses and captured by phase-contrast microscopy (Olympus, Germany) in comparison to untreated control cells.

Caco-2 cells = experiment: MTT anticancer assay; format: cell-based; details: for SI Caco-2: IC50 Wi-38 / IC50 Caco-2
Text: as §3, §4

A549 cells [26] = experiment: MTT anticancer assay; format: cell-based, human; details: 48 h
Text: as §3, §4

MDA cells = experiment: MTT anticancer assay; format: cell-based, human; details: 48 h
Text: as §3, §4

A549 cells [27] = experiment: Wound healing scratch (anti-migration) assay; format: cell-based, human; details: IC50 doses, 48 h
Method: To assess the anti-migration inhibition capability of newly synthesized derivatives, a wound healing technique was employed. A549 cells were planted in 12-well plates and kept alive at 37 °C until they achieved 80–90% fluency. The cell monolayers were smashed with a sterile tip and exposed to the prepared derivatives at IC50 doses. At 0 and 48 h of treatment, the wound closure area was captured and calculated by imaging analysis with the Cell-Sens software (Olympus, Japan).

all applied pathogens = experiment: Agar-well diffusion of synthesized compounds, whole panel; format: cell-based
Text: (§5) The antimicrobial activity of the prepared compounds was estimated through an agar-well diffusion method as adapted from the modified Kirby–Bauer protocol.[24] In this test, microbial pathogens were applied, including Staphylococcus aureus ATCC 25923 (S. aureus), Streptococcus mutans ATCC 25175 (S. mutans), Bacillus cereus ATCC 19637 (B. cereus), Bacillus aureus ATCC 25923 (B. aureus), Bacillus epidermidis ATCC 14990 (B. epidermidis), and Bacillus subtilis ATCC 11774 (B. subtilis) as Gram-positive bacteria, and Pseudomonas aeruginosa ATCC 27853 (P. aeruginosa), Klebsiella pneumonia ATCC 13883 (K. pneumonia), and Salmonella typhimurium ATCC 14028 (S. typhimurium), Salmonella pneumoniae ATCC 10031(S. pneumoniae), Escherichia coli ATCC 10536 (E. coli), and Salmonella paratyphi ATCC 9150 (S. paratyphi) as Gram-negative bacteria. Additionally, Candida albicans (ATCC 10231), Candida krusei ATCC 6258 (C. krusei), Candida glabrata ATCC 66032 (C. glabrata), andCandida parapsilosis ATCC 22019 (C. parapsilosis) were applied as models of unicellular fungi. The pre-inoculation cultures of the pathogens were prepared on Muller–Hinton broth and cultivated for 24 h at 37 °C. The agar-well test was prepared on Muller–Hinton agar with 100 μL of each pathogen pre-culture (0.5 McFarland conc.) and uniformly distributed on the plate surface. Under aseptic conditions, six wells were created on the agar surface using a sterile corkborer (9 mm). To each well, 100 μL of the prepared compound (10 mg mL^−1) was separately inserted into each plate. All plates were incubated for 24 h at 37 °C; the established inhibition zones (Halo-zones) surrounding the wells indicated positive antimicrobial activity and were stated as the radius of the inhibition zone (mm).

S. aureus = experiment: Agar-well diffusion of synthesized compounds; format: cell-based, Staphylococcus aureus ATCC 25923; details: 100 μL of 10 mg mL^−1 per well, 24 h, 37 °C
Text: as §5, with “Under aseptic conditions, six wells were created on the agar surface using a sterile corkborer (9 mm). To each well, 100 μL of the prepared compound (10 mg mL^−1) was separately inserted into each plate. All plates were incubated for 24 h at 37 °C; the established inhibition zones (Halo-zones) surrounding the wells indicated positive antimicrobial activity and were stated as the radius of the inhibition zone (mm).” left out

S. mutans = experiment: Agar-well diffusion of synthesized compounds; format: cell-based, Streptococcus mutans ATCC 25175; details: 100 μL of 10 mg mL^−1 per well, 24 h, 37 °C
Text: as §5

O=C(Nc1ccc(Nc2ccnc3cc(Cl)ccc23)cc1)c1cc2ccccc2oc1=O [Compound C2]
Inhibition zone diameters (Bacillus cereus [1]): 0 mm
Inhibition zone diameters (Bacillus subtilis [2]): 0 mm
Inhibition zone diameters (Candida albicans [3]): 0 mm
Inhibition zone diameters (Candida glabrata [4]): 0 mm
Inhibition zone diameters (Candida krusei [5]): 0 mm
Inhibition zone diameters (Candida parapsilosis [6]): 0 mm
Inhibition zone diameters (Escherichia coli [7]): 0 mm
Inhibition zone diameters (Klebsiella pneumoniae [8]): 0 mm
Inhibition zone diameters (Pseudomonas aeruginosa [9]): 0 mm
Inhibition zone diameters (Salmonella paratyphi [10]): 0 mm
Inhibition zone diameters (Staphylococcus aureus [11]): 0 mm
Inhibition zone diameters [12]: 0 mm
Antimicrobial effect [13]: neither C1 nor C2 controls have any effect
Biofilm reduction (Bacillus cereus [14]): 10.32 ± 0.19^i %
Biofilm reduction (Bacillus subtilis [15]): 8.41 ± 0.31^i %
Biofilm reduction (Candida albicans [16]): 3.21 ± 0.99^i %
Biofilm reduction (Candida glabrata [17]): 6.48 ± 1.87^i %
Biofilm reduction (Candida krusei [18]): 5.24 ± 1.22^i %
Biofilm reduction (Candida parapsilosis [19]): 3.87 ± 0.14^i %
Biofilm reduction (Escherichia coli [20]): 8.31 ± 0.75^i %
Biofilm reduction (Klebsiella pneumoniae [21]): 2.03 ± 0.77^i %
Biofilm reduction (Pseudomonas aeruginosa [22]): 3.65 ± 0.47^i %
Biofilm reduction (Salmonella paratyphi [23]): 7.24 ± 0.38^i %
Biofilm reduction (Staphylococcus aureus [24]): 11.31 ± 0.17^i %
Biofilm reduction [25]: 8.29 ± 0.19^i %

O=C(Nc1ccc(Nc2c3ccccc3nc3ccccc23)cc1)c1cc2ccccc2oc1=O [Compound B, N-(4-(acridin-9-ylamino)phenyl)-2-oxo-2H-chromene-3-carboxamide]
IC50 (Wi-38 cells; WI-38, normal human lung fibroblast cells): 126 ± 10.9 µg/mL (≈ 276 µM)
IC50 (Caco-2 cells; Homo sapiens, Caco-2, colon carcinoma cells, MTT, 48 h): 4.87 ± 1.69 µg/mL (≈ 10.6 µM)
SI Caco-2 (Caco-2 cells): 25.93 ± 2.25
IC50 (A549 cells [26]; Homo sapiens, A549, lung carcinoma cells): 6.98 ± 1.99 µg/mL (≈ 15.3 µM)
IC50 (MDA cells; Homo sapiens, Breast carcinoma cell): 4.27 ± 0.46 µg/mL (≈ 9.33 µM)
Migration inhibition (A549 cells [27]): 87.21%
Antimicrobial activity (all applied pathogens): no antimicrobial activity

Nc1ccc(Nc2c3ccccc3nc3ccccc23)cc1 [Compound B1]
IC50 Wi-38 (Wi-38 cells; normal human lung fibroblast cells): 195.0 ± 14.41 µg/mL (≈ 683 µM)
SI Caco-2 (Caco-2 cells): 8.07 ± 0.59
IC50 Caco-2 (Caco-2 cells; colon carcinoma cells, MTT, 48 h): 24.15 ± 1.76 µg/mL (≈ 84.6 µM)
IC50 A549 (A549 cells [26]; lung carcinoma cells): 16.93 ± 1.88 µg/mL (≈ 59.3 µM)
IC50 MDA (MDA cells; breast carcinoma cells): 8.92 ± 0.67 µg/mL (≈ 31.3 µM)
Migration inhibition (A549 cells [27]): 74.63%
Inhibition zone (S. aureus): about 13 mm
Inhibition zone (S. mutans): about 13 mm
